# Assay results taken from patent US5487899A, “Wound healing” (Jess Clarke & Sons, Inc., priority 1994, dated 1996).
# Legend:
# [1] = system: croton oil-induced ear swelling; experiment: croton oil-induced ear swelling (Example 4); format: in vivo, ICR-HSD mice; conditions: Aspirin 100 μg, topical, 6 h
# Protocol: Four groups (10 mice per group) of adult male ICR-HSD mice was given topically 25 μg/per 10 μl croton oil solutions. This irritant was applied to the inner surface of the animal's right ear, and the left ear was not treated and used as a control. One-half hour after the application of the croton oil irritant, solutions were added topically to reduce inflammation; the solutions were 1% aspirin, 2% Aloe and a solution that had both aspirin and aloe.
# Six hours after the topical application of croton oil solutions, a 6 mm biopsy punch specimen was taken from each ear, weighed, and the weight differences between the two were compared to determine the amount of inflammation remaining on the right ear.
# wound = experiment: Wound tensile strength assay (Example 6); format: in vivo,  mice; conditions: 50 mg/kg (each) × 4, subcutaneous, 6 h after day 4 injection
# Protocol: While tensile strength of wounds is measured in terms of the load applied per unit of cross section area, the breaking strength is the measure of force required to break a wound of tissue without regard to dimensions. While tensile strength is not a function of the incision length, breaking strength is. The measurements of force required to pull a wound apart differ chiefly in the manner in which the force is applied and the sophistication of the force measurement. In the data recorded herein and in the data collected in the making of the present invention, we used a conventional plastic syringe calibrated to measure […] of air injected into the peritoneal cavity of the mouse. […] Elastic bands are first placed on over the shoulders and hips of the animal to contain the injected air into a defined area of the body and to reduce error involving underlying tissue of the peritoneal cavity, and air is injected into the animal until the wound is disrupted at which time the volume of air is recorded. […]
# Each wound was closed with a 9 mm wound clip at 0.25-inch spacings for a total of 3 clips per wound. […] Six hours after the day 4 injection, the tensile strength of wounds was measured by injecting air into the peritoneal cavity from a syringe as described above.
# open wounds = experiment: Open wound healing assay (Example 5); format: in vivo, ICR mice; conditions: daily subcutaneous, Saline control 60.0 ± 8.3
# Protocol: Adult male ICR mice (30 g, 15 animals/group) were anesthetized with ether and shaved on both sides of the back. A sterile 6 mm Baker biopsy punch was used to induce a wound on each side of the vertebral column. Anterior-posterior wound diameter measurements were made using a vernier caliper on days 0, 4 and 7. Three treatment groups received daily subcutaneous injections of a gibberellic acid (GA3) solution at dosages of 2, 10 and 100 mg/Kg, respectively. Control mice received daily injections of saline on a 10 ml/Kg basis. Standard errors for each mean value was calculated. The student's "t" test was used to determine significant differences between treatment and control groups. An analysis of variance (ANOVA) was also calculated to determine the statistical significance of the study as a whole, and gave a Fisher ratio at 16.48 which is significant at p<0.001.
Compound,Inhibition (%) of croton oil-induced ear swelling [1] [%],increase (%) in wound tensile strength (wound) [%],decrease (%) in wound diameter (open wounds; 2 mg/kg) [%],decrease (%) in wound diameter (open wounds; 10 mg/kg) [%],decrease (%) in wound diameter (open wounds; 100 mg/kg) [%]
CC(=O)Oc1ccccc1C(=O)O [Aspirin],23.7 ± 3.1,,,,
"C=C1C[C@]23C[C@@]1(O)CC[C@H]2[C@@]12C=C[C@H](O)[C@@](C)(C(=O)O1)[C@H]2[C@@H]3C(=O)O [Gibberellin, gibberellic acid]",,36.1 ± 1.5,65.3 ± 11.3,71.6 ± 12.1,81.7 ± 7.0
